Data taken from paper PMC8151848, “Tambjamines and Prodiginines: Biocidal Activity against Trypanosoma cruzi” (Pharmaceutics, 2021).
Where two headings read alike, the source gives them in different places.

Legend:
[1] = Cytotoxicity assay (resazurin) in L-929 fibroblasts; assay type: cell-based, mouse; settings: mouse, L-929, 16 µM, n = 9, read-out: % Cytotoxicity ± SD
Description: Mouse L-929 fibroblasts (NCTC clone 929, ECACC 88102702) were used for both drug toxicity and infection assays. Cell line was obtained from Dr. Concepció Soler, Dept. Pathology & Experimental therapeutics, Faculty of Medicine and Health Sciences, University of Barcelona, Spain. Human hepatocarcinoma Hep G2 cells (American Type Culture Collection (ATCC HB-8065)) were employed only in the drug toxicity assays and were obtained from Dr. Neus Agell, Cell Biology Research Group, Faculty of Medicine and Health Sciences, University of Barcelona, Spain.
Cells were seeded by trypsinization in 96-well microplates (L-929: 4 × 10^3 cells/well; Hep G2: 1.5 × 10^4 cells/well) and incubated for 24 h at 37 °C to allow cell attachment. On the following day, the medium was discarded and replaced with a fresh medium containing the different concentrations of the drugs. Hep G2 cells were treated with concentrations of 100, 10, and 1 µM of the different drugs, while L-929 cells were treated with a wider range of concentrations in order to calculate the IC50 value (the drug concentration that inhibits 50% of cell growth). Medium, growth, and drug blanks were used in each test as controls. Plates were incubated again for another 24 h. After treatment, 20 µL of resazurin diluted in 1X phosphate-buffered saline (PBS; Sigma Aldrich) was added at a final concentration of 70 µM. The plates were incubated for another 24 h, after which fluorescence was measured in a microplate reader (FLUOstar OPTIMA, BMG LABTECH GmbH, Ortenberg, Germany) at an excitation wavelength of 530 nm and an emission wavelength of 590 nm. Each concentration was tested in triplicate and the experiments were repeated three times independently. Results indicated the percentage of toxicity (% T value). (3) % Toxicity=100−(AE−AEB)/(AC−ACB)×100 where AE is the absorbance of the experimental group, AEB the absorbance of the drug blank, AC the absorbance of the untreated cells, and ACB the absorbance of the culture medium blank. For the L-929 fibroblasts, the IC50 values (the drug concentration that inhibits 50% of cell growth) were calculated for each compound using the GraphPad Prism software.

[2] = system: trypomastigotes/amastigotes of T. cruzi (CLB strain); experiment: Trypomastigote/amastigote susceptibility assay in infected L-929 fibroblasts; assay type: cell-based, Trypanosoma cruzi; settings: for IC50: CLB strain, 96 h treatment, read-out: IC50 (µM) trypomastigote/amastigote growth inhibition
Description: This assay was performed in 96-well microplates. Briefly, 4 × 10^3 L-929 fibroblasts were seeded in 80 µl of MEM containing 10% FBS and antibiotics. The plate was placed overnight at 37 °C in a 5% CO2 humidified incubator to allow cell adherence. Afterward, the cells were infected with 20 µL of trypomastigotes (40,000 trypomastigotes/well (4000 mammalian cells)) diluted in the same medium. The cell:parasite ratio was 1:10. Plates were incubated for 2 h at 33 °C and 5% CO2. The medium was then discarded to dispose of nonpenetrated parasites and replaced with 200 µL of MEM without phenol red supplemented with FBS and antibiotics. After 48 h of incubation, the content of the wells was replaced with a fresh medium containing the dilutions of the compounds. The plates were returned to the incubator for an additional 96 h under the same conditions. Wells containing drug blanks, medium, fibroblasts, and untreated infected cells were included in all the plates as controls. An internal control of the reference drug (benznidazole) was also included. Next, 50 µl of substrate CPRG (diluted in 3% Triton X-100 solution) were added at a final concentration of 400 µM. After 18–20 h of incubation at 37 °C, absorbance readings were taken at 595 nm using a scanning multiwell spectrophotometer. All the assays were performed in triplicate and the experiments were run three times in different weeks. The results are expressed as the percentage of trypomastigote/amastigote growth inhibition (% T/A GI value) as follows:(2) %Trypomastigote/Amastigote growth inhibition=100−(AE−AEB)/(AC−ACB) ×100 where AE is the absorbance of the experimental group, AEB the absorbance of the compound blank, AC the absorbance of the control group, and ACB the absorbance of the culture medium blank. The IC50 values (the drug concentration that eliminates 50% of the parasites) were determined for each compound using the GraphPad Prism software.

[3] = system: epimastigotes of T. cruzi; experiment: Epimastigote susceptibility assay (combined therapy with benznidazole); assay type: cell-based, Trypanosoma cruzi; settings: combination of benznidazole with compound at 0.25x IC50
Description: To assess the anti-epimastigote effect of the compounds in combination with benznidazole, fixed concentrations of each compound were added to a 96-well microplate previously filled with serial dilutions of benznidazole (0.06–128 µM). These fixed concentrations were calculated based on the IC50 values previously obtained for each drug and corresponded to 4x IC50, 2x IC50, IC50, 0.75x IC50, 0.5x IC50, 0.25x IC50. Each well was inoculated with 100 µL of the epimastigotes (2.5 × 10^5/mL) obtained from the exponential growth phase and the plates were incubated for 72 h at 28 °C. Drug blanks, medium, and growth wells were included in each assay as controls. Afterward, 50 µL of CPRG diluted in 0.9% Triton X-100 solution were added at a final concentration of 200 µM and the plates were returned to the incubator for another 3 h at 37 °C. After incubation, absorbance was read at 595 nm and the data were analyzed. All experiments were repeated at least two times independently and each combination was tested in duplicate.
The results are expressed as the IC50 values obtained with each drug combination. To evaluate the interaction of benznidazole with these compounds, fractional inhibitory concentration (FIC) values were calculated as follows:
FIC of compound A (FIC A) = IC50 of A in combination/IC50 of A alone; while FIC of compound B (FIC B) = IC50 of B in combination/IC50 of B alone.
Finally, the FIC index (FICi) was calculated as the sum of FICs using the following formula: FICi=FIC A+FIC B
FICi values were interpreted according to the criteria established by Simoes-Silva et al.: FICi ≤ 0.5 indicates synergism; FICi > 0.5 and ≤ 4 indicates an additive interaction (no interaction); and FICi > 4 indicates antagonism.

[4] = L-929 fibroblasts (NCTC clone 929)
[5] = IC50 for L-929 fibroblasts / IC50 for T. cruzi trypomastigotes/amastigotes
[6] = Trypanosoma cruzi, L929, highest concentration assayed (16 µM), n = 9, read-out: % Trypomastigote/Amastigote Growth Inhibition (%T/A GI ± SD)

| SMILES | cytotoxicity at 24 h, 16 µM [1, 4] [%] | Selectivity index (SI), Trypomastigotes [2, 5] | IC50 ([2]; Trypanosoma cruzi, L929) [µM] | inhibition at 16 µM [2, 6] [%] | cytotoxicity at 24 h, 16 µM [1] [%] | % Trypomastigote/Amastigote Growth Inhibition (%T/A GI ± SD) ([2]; highest concentration assayed (16 µM), n = 9) [%] | IC50 [2] [µM] | FICi [3] | Selectivity index (SI), Trypomastigotes [2] | inhibition at 16 µM ([2]; Trypanosoma cruzi, L929, read-out: % Trypomastigote/Amastigote Growth Inhibition (%T/A GI ± SD)) [%] |
| --- | --- | --- | --- | --- | --- | --- | --- | --- | --- | --- |
| O=C(Cn1ccnc1[N+](=O)[O-])NCc1ccccc1 [Benznidazole, reference compound] | 0 | 779.71 | 1.76 ± 0.34 | 76 ± 5.02 | – | – | – | – | – | – |
| CCCCCC1=C/C(=C/c2[nH]c(-c3ccc[nH]3)cc2OC)N=C1C [Natural prodigiosin, prodigiosin] | – | 50 | – | – | 95.8 ± 0.09 | 100 ± 0 | 0.1 ± 0.04 | 0.81 | – | – |
| COC1=CC(c2cc3ccccc3[nH]2)=N/C1=C\c1[nH]c(C)cc1C [Obatoclax, reference compound] | 63.5 ± 1.63 | – | 2.6 ± 0.4 | 88.4 ± 6 | – | – | – | 1.80 | 2.24 | – |
| CCCCCC1=C/C(=C/c2[nH]c(-c3ccc[nH]3)cc2OC)N=C1C [Synthetic prodigiosin, prodigiosin] | – | 5.36 | – | – | – | – | 0.57 ± 0.19 | 0.73 | – | 100 |
| CCc1c(-c2ccc[nH]2)[nH]c(/C=N/C2CCCCC2)c1C [MM3] | 88.4 ± 2.75 | 6.42 | 1.9 ± 0.45 | 97.1 ± 3.01 | – | – | – | 0.79 | – | – |
| CCc1c(-c2ccc[nH]2)[nH]c(/C=N/c2ccc(C(C)(C)C)cc2)c1C [MM4] | 64.2 ± 10.5 | – | – | – | – | – | – | 0.70 | – | – |
